Experimental data taken from patent publication US9956222B2, “Quinazoline derivative as tyrosine-kinase inhibitor, preparation method therefor and application thereof” (Xuanzhu Pharma Co., Ltd., priority 2011, dated 2018).

Key:
[1] = biological target: T1, EGFR: human epidermal growth factor receptor (Homo sapiens, UniProt P00533); assay: In vitro enzyme inhibitory activity (Caliper, FAM labeled peptide); format: biochemical; details: EGFR kinase, 28° C., 1 h
T1 construct: purchased Carna
Description: (§1) In vitro enzyme inhibitory activity of the present compounds
EGFR: human epidermal growth factor receptor (Carna);
(§2) 1. Formulating the agents to be used in the assay
(§3) (3) Stop buffer (100 mM HEPES, pH 7.5, 0.015% Brij-35, 0.2% Coating Reagent #3, 50 mM EDTA);
(§4) (6) 5-fold compound solutions (using 100% DMSO to formulate 50-fold compound solutions having different concentration gradients, and diluting with water by 10 times to obtain 5-fold compound solutions having different concentration gradients);
(§5) 2. Adding 5 μL of a 5-fold compound solution to a 384-well plate;
(§6) 3. Adding 10 μL of a 2.5-fold kinase solution to incubate for 10 min;
(§7) 4. Then adding 10 μL of a 2.5-fold peptide solution, and reacting at 28° C. for 1 h; and
(§8) 5. Finally, adding 25 μL of stop buffer to terminate the reaction, and reading the data with Caliper.
(§9) 6. Curve fitting to obtain an IC50 value. The calculated inhibition ratio (%)=(the maximum conversion rate−the conversion rate)/(the maximum conversion rate−the minimum conversion rate)×100
(§10) The curve fitting was conducted with the Xlfit software to obtain IC50 values.

[2] = biological target: T2, HER4: human epidermal growth factor receptor 4 (Homo sapiens, UniProt Q15303); assay: as above; format: biochemical; details: HER4 kinase, 28° C., 1 h
T2 construct: purchased Carna
Description: as §1
HER4: human epidermal growth factor receptor 4 (Carna).
as §2, §3, §4, §5, §6, §7, §8, §9, §10

[3] = biological target: T3, HER2: human epidermal growth factor receptor 2 (Homo sapiens, UniProt P04626); assay: as above; format: biochemical; details: HER2 kinase, 28° C., 1 h
T3 construct: purchased Carna
Description: as §1
HER2: human epidermal growth factor receptor 2 (Carna);
as §2, §3, §4, §5, §6, §7, §8, §9, §10

[4] = tested on: A431 cells (Epidermoid carcinoma); assay: In vitro cellular inhibitory activity, XTT method; format: cell-based; details: Homo sapiens, A-431, 72 hours, read-out: in vitro cellular inhibitory activities on A431 IC50
Description: (§11) In vitro cellular inhibitory activity of the present compounds
(§12) 1. Formulating the agents and the compounds
(§13) 2) Formulating the XTT working liquor: […]
(§14) The mixture was filtered, packaged separately, and used immediately or within one week. It is necessary for all of the processes to be kept in darkness.
(§15) 3) Formulating test compounds
(§16) Formulating a stock solution of test compound: […]
(§17) The compound powder was dissolved into DMSO until a concentration of 10 mM reached.
(§18) Formulating gradient dilute solutions of test compound: […]
(§19) First, the 10 mM stock solution of test compound was diluted with DMSO in a 4-fold successive gradient for 10 concentrations. 2 μL DMSO-diluted compound was added to 998 μL of the culture medium containing 10% FBS. Therefore, the maximum concentration of the compound is 20 μM, the concentration of DMSO is 0.2%, and there are 10 concentration gradients in total.
(§20) 1) Preparing the cell suspension
(§21) The culture medium was removed from the culture bottle. The cells were rinsed twice with PBS. The pancreatic enzyme was added to digest cells. The digested cells were collected by centrifuge. The cells were resuspended with a culture medium containing 10% fetal calf serum, counted and adjusted to an appropriate concentration (the cell viability should be over 90%). The cell concentration was 5×10^4/ml.
(§22) 2) The cell suspension was added to the 96-well plate, 100 μL per well.
(§23) 3) The plate was placed in the incubator and incubated at 37° C. under 5% CO2 overnight.
(§24) Drugs were added to the cell culture plate. The plate was placed in the incubator and incubated at 37° C. under 5% CO2 for 72 hours.
(§25) 5. Testing the cell viability with the XTT method
(§26) The XTT working solution was added to the plate. The plate was placed in the incubator and incubated at 37° C. under 5% CO2 for 2 hr. Then the plate was placed in a microplate reader to read the absorbance at 450 nm.
(§27) 2) Data were input into GraphPad Prism 5.0 to plot a curve and obtain IC50.

[5] = tested on: SKOV3 cells (Ovarian carcinoma); assay: In vitro cellular inhibitory activity, XTT method; format: cell-based; details: Homo sapiens, SK-OV-3, 72 hours, read-out: in vitro cellular inhibitory activities on SKOV3 IC50
Description: as §11, §12, §13, §14, §15, §16, §17, §18, §19, §20, §21, §22, §23, §24, §25, §26, §27

[6] = tested on: H1975 Cells (NSCLC, non-small cell lung cancer); assay: In vitro cellular inhibitory activity, XTT method; format: cell-based; details: Homo sapiens, NCI-H1975, 72 hours, read-out: in vitro cellular inhibitory activities on H1975 IC50
Description: as §11, §12, §13, §14, §15, §16, §17, §18, §19, §20, §21, §22, §23, §24, §25, §26, §27

T2 sequence (Q15303 26-1308): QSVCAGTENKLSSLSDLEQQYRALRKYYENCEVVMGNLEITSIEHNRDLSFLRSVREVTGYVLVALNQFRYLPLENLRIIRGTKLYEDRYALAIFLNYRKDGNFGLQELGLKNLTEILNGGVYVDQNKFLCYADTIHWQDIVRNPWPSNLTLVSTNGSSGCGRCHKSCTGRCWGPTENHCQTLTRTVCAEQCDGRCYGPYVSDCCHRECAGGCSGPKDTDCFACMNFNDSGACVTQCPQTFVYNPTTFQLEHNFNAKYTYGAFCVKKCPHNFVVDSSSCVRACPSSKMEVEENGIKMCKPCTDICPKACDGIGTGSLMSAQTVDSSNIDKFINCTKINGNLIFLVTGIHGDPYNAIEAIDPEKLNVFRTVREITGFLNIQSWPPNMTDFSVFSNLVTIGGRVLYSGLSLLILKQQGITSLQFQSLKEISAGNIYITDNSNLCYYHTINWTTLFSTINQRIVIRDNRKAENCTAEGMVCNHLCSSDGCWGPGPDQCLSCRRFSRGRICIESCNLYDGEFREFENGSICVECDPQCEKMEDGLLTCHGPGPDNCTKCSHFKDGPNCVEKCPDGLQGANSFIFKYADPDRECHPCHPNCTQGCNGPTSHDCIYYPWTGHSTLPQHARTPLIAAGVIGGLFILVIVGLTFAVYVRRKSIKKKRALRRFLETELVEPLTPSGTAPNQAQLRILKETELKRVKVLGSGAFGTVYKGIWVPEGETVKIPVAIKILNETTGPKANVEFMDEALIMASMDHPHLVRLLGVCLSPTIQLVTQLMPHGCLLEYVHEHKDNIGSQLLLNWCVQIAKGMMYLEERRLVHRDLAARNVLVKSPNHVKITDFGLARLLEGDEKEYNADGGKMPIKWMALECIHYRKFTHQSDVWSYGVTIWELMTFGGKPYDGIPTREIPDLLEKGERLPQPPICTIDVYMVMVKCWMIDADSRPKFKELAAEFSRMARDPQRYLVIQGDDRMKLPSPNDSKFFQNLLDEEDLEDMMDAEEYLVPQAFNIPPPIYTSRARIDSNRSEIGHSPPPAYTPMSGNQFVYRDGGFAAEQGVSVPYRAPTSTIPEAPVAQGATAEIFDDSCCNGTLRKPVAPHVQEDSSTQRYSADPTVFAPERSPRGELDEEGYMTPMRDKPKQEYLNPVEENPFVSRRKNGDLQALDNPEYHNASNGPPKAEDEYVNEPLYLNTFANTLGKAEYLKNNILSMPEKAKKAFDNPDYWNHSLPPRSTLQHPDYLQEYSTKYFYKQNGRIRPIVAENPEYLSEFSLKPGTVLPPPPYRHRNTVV
T3 sequence (P04626 23-1255): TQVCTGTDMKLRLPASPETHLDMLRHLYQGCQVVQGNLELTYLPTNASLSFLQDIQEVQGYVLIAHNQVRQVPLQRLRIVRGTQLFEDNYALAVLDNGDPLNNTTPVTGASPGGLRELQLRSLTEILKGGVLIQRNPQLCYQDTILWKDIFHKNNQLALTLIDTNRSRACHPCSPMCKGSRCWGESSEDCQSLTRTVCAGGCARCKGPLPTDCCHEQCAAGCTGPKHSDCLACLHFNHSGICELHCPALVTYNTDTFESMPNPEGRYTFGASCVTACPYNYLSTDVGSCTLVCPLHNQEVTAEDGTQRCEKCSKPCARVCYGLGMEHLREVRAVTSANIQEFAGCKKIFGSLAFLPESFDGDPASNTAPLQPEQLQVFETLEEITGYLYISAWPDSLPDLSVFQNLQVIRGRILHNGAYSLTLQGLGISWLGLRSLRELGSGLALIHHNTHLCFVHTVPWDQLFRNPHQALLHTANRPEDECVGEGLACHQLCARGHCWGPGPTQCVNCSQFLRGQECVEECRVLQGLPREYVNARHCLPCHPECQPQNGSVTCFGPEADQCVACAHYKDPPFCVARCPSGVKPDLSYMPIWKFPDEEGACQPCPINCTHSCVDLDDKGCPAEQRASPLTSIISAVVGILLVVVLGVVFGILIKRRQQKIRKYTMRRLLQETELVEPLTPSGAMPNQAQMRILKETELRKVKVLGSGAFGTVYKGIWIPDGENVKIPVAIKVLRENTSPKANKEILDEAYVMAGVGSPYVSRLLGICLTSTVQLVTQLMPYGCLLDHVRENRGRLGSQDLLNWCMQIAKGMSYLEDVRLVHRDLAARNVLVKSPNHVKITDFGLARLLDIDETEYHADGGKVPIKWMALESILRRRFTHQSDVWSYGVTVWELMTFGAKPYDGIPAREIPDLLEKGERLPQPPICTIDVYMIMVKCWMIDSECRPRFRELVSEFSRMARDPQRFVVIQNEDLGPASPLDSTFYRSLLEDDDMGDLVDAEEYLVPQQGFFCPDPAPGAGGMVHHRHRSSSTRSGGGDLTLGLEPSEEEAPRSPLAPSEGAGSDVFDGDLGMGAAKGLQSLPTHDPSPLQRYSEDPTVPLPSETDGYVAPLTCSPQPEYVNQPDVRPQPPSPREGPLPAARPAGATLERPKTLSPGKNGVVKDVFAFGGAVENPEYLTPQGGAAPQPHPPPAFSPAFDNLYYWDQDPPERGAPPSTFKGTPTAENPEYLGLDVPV
T1 sequence (P00533 25-1210): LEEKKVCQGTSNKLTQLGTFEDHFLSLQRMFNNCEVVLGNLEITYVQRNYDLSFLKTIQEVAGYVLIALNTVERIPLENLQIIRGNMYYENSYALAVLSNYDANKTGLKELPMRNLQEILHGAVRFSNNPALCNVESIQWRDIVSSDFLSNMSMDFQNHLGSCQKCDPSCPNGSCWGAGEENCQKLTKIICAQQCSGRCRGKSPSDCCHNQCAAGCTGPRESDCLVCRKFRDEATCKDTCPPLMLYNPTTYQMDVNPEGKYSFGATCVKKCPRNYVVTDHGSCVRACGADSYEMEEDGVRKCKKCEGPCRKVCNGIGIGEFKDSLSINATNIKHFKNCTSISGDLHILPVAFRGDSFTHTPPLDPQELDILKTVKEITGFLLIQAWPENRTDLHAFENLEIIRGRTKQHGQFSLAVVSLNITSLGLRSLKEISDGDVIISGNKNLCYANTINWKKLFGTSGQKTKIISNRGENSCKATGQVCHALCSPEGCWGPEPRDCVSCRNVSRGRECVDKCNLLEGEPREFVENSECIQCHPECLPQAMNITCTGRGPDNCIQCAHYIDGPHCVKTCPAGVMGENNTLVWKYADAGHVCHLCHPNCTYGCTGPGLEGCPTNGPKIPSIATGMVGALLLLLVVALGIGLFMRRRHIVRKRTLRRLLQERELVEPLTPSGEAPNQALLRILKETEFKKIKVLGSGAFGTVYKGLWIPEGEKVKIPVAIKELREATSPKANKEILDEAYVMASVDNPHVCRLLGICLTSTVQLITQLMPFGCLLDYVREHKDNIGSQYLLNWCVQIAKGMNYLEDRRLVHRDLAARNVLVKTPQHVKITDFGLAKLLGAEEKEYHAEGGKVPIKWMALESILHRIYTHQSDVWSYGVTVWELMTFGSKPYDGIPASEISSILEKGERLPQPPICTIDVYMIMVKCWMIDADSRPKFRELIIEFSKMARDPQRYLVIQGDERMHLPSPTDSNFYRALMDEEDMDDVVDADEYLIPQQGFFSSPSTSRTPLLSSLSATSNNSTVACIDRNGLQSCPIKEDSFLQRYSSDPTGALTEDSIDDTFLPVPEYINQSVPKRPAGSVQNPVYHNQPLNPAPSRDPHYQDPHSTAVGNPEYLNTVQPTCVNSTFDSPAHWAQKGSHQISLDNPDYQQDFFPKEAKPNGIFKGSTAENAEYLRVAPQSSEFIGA

IC50 [1] [nM] | IC50 [2] [nM] | IC50 [3] [nM] | IC50 [4] [nM] | IC50 [5] [nM] | IC50 [6] [nM] | SMILES
0.55 | 3.1 | 14 | – | – | – | COc1cc2ncnc(Nc3ccc(F)c(Cl)c3)c2cc1NC(=O)/C=C/CN1CC2CC2C1 (stereo not drawn) [Compound 1, (E)-4-[3-azabicyclo[3.1.0]hexan-3-yl]-N-[4-(3-chloro-4-fluorophenylamino)-7-methoxyquinazolin-6-yl]-2-butenamide]
0.65 | 8.9 | 19 | 33.3 | 3220 | 148 | COc1cc2ncnc(Nc3ccc(F)c(Cl)c3)c2cc1NC(=O)/C=C/CN1CC2(CCC2)C1 [Compound 2]
– | – | – | – | 3710 | 134 | COc1cc2ncnc(Nc3ccc(F)c(Cl)c3)c2cc1NC(=O)/C=C/CN1CC2(CCCC2)C1 [Compound 14, (E)-N-[4-(3-chloro-4-fluorophenylamino)-7-methoxyquinazolin-6-yl]-4-(2-azaspiro[3.4]octan-2-yl)-2-butenamide]
– | – | – | – | 3640 | 179 | COc1cc2ncnc(Nc3ccc(F)c(Cl)c3)c2cc1NC(=O)/C=C/CN1CC2(CCCCC2)C1 [Compound 15, (E)-N-[4-(3-chloro-4-fluorophenylamino)-7-methoxyquinazolin-6-yl]-4-(2-azaspiro[3.5]nonan-2-yl)-2-butenamide]
– | – | – | – | 3060 | – | COc1cc2ncnc(Nc3ccc(F)c(Cl)c3)c2cc1NC(=O)/C=C/CN1CCC2(CCC2)CC1 [Compound 17, (E)-N-[4-(3-chloro-4-fluorophenylamino)-7-methoxyquinazolin-6-yl]-4-(7-azaspiro[3.5]nonan-7-yl)-2-butenamide]
– | – | – | – | 3070 | 85.6 | COc1cc2ncnc(Nc3ccc(F)c(Cl)c3)c2cc1NC(=O)/C=C/CN1CCC2(CC2)C1 [Compound 26, (E)-N-[4-(3-chloro-4-fluorophenylamino)-7-methoxyquinazolin-6-yl]-4-(5-azaspiro[2.4]heptan-5-yl)-2-butenamide]
– | – | – | – | 3190 | 91.9 | COc1cc2ncnc(Nc3ccc(F)c(Cl)c3)c2cc1NC(=O)/C=C/CN1CCC2(CCC2)C1 [Compound 27, (E)-N-[4-(3-chloro-4-fluorophenylamino)-7-methoxyquinazolin-6-yl]-4-[6-azaspiro[3.4]octan-6-yl]-2-butenamide]
– | – | – | – | – | 39 | COc1cc2ncnc(Nc3ccc(F)c(Cl)c3)c2cc1NC(=O)/C=C/CN1CCCC2(COC2)C1 [Compound 28, (E)-N-[4-(3-chloro-4-fluorophenylamino)-7-methoxyquinazolin-6-yl]-4-[2-oxa-6-azaspiro[3.5]nonan-6-yl]-2-butenamide]
– | – | – | – | – | 57.1 | COc1cc2ncnc(Nc3ccc(F)c(Cl)c3)c2cc1NC(=O)/C=C/CN1CCC2(CC1)COC2 [Compound 29, (E)-N-[4-(3-chloro-4-fluorophenylamino)-7-methoxyquinazolin-6-yl]-4-(2-oxa-7-azaspiro[3.5]nonan-7-yl)-2-butenamide]
– | – | – | – | 3350 | – | COc1cc2ncnc(Nc3ccc(F)c(Cl)c3)c2cc1NC(=O)/C=C/CN1CCC2(CC1)CC2 [Compound 30, (E)-N-[4-(3-chloro-4-fluorophenylamino)-7-methoxyquinazolin-6-yl]-4-(6-azaspiro[2.5]octan-6-yl)-2-butenamide]
– | – | – | 548 | 3960 | 356 | COc1cc2ncnc(Nc3ccc(F)c(Cl)c3)c2cc1NC(=O)/C=C/CN1CCCCC1 [PF-00299804, reference compound]
